Key:
[1] = In vitro dicamba photo-release from photo-labile dicamba esters, acetonitrile/10% water solvent (Example 27); format: physicochemical; settings: acetonitrile containing 10% water
Protocol: This Example describes in vitro testing of dicamba photo-release by homogeneous solutions of photo-labile dicamba esters. The esters were dissolved in tetrahydrofuran (THF). Ester concentration was 0.1 mM. 25 ml of the solution was transferred to 22 mm tubes fabricated from graded seal quartz tubing with a 19/22 tapered seal at the top, which was closed with a tapered glass plug and secured with a plastic ring clamp. The solution was entirely below the quartz-to-glass transition, ensuring that the entire volume was exposed to the full spectrum.
The sealed tubes were placed in a Growth Chamber where they were exposed to simulated sunlight for 14 hours per day at 35° C. Dicamba concentrations in the solution were measured during the course of the photolysis.
A sample of the initial solution was reserved in a glass vial away from the light source and analyzed at the conclusion of the study, providing a measurement of the amount of dicamba present without illumination of the photolysis solution (the “dark control”).
This Example is another photolysis of photo-labile dicamba esters, but using acetonitrile containing 10% water by weight as the solvent. The experimental protocol is otherwise the same as in Example 18.

[2] = Field dicamba volatility, airborne dicamba collected by air samplers (Example 34); format: physicochemical; settings: field plot, 0.5 lb/acre dicamba a.e. with ROUNDUP WEATHERMAX, airborne dicamba collected over 24 hours, maximum 86° F.
velvetleaf = assay: Greenhouse post-emergent control of velvetleaf by emulsifiable concentrates (Example 30); format: in vivo
Protocol: The efficacy of some photo-labile ester formulations from Example 28 for post-emergent control of velvetleaf was tested in the greenhouse. All formulations were tested at rates of 140, 280, 420, and 560 g dicamba equivalent per hectare rates and compared to the diglycolamine salt of dicamba (CLARITY®) at the same rates and untreated control plants. The velvetleaf plants were 10-15 cm in height at the time of spraying. Percent control was evaluated three weeks after treatment.
The methodology of Example 29 was used to evaluate the efficacy of several photo-labile esters of dicamba for post-emergent control of velvetleaf as emulsifiable concentrate formulations described in Example 28.

COc1c(Cl)ccc(Cl)c1C(=O)OCCc1ccccc1[N+](=O)[O-] [Ester 2, 2-Nitrophenethyl Ester of Dicamba]
Dark Control % dicamba ([1]; no illumination): 0%
Conversion to dicamba, 1 day ([1]; simulated sunlight, 1 day): 33%
Conversion to dicamba, 2 days ([1]; simulated sunlight, 2 days): 56%
Conversion to dicamba, 3 days ([1]; simulated sunlight, 3 days): 75%
Conversion to dicamba, 5 days ([1]; simulated sunlight, 5 days): 93%
Conversion to dicamba, 7 days ([1]; simulated sunlight, 7 days): 104%
Conversion to dicamba, 11 days ([1]; simulated sunlight, 11 days): 107%
Conversion to dicamba, 13 days ([1]; simulated sunlight, 13 days): 108%
Conversion to dicamba, 15 days ([1]; simulated sunlight, 15 days): 96%
Conversion to dicamba, 19 days ([1]; simulated sunlight, 19 days): 106%

COc1c(Cl)ccc(Cl)c1C(=O)OCc1ccccc1[N+](=O)[O-] [Ester 1a, 2-Nitrobenzyl Ester of Dicamba]
average dicamba level from the five air samplers [2]: 1.2 ng/m^3

COc1c(Cl)ccc(Cl)c1C(=O)Oc1cnc2ccccc2n1 [Ester 13a, 2-quinoxalinol ester of dicamba]
% Control of velvetleaf, 140 g/ha (velvetleaf; 140 g/ha): 44%
% Control of velvetleaf, 280 g/ha (velvetleaf; 280 g/ha): 69%
% Control of velvetleaf, 420 g/ha (velvetleaf; 420 g/ha): 70%
% Control of velvetleaf, 560 g/ha (velvetleaf; 560 g/ha): 83%

— patent publication US20170029355A1, “LABILE ESTERS OF AGROCHEMICALS FOR CONTROLLED RELEASE AND REDUCTION OF OFF-SITE MOVEMENT” (Monsanto Technology LLC, priority 2011, published 2017)
